Measured values reported in patent US20240218059A1, “TGF-Beta 1 INHIBITORS FOR PREVENTING AND TREATING SARS-COV-2” (The Regents of the University of Colorado, A Body Corporate, priority 2020, published 2024).

Columns and labels:
active TGF-β1 signaling = test: inhibition of active TGF-β1 signaling in MLEC luciferase reporter cells; assay type: cell-based, mink
Description: In these experiments, SB505124 and galunisertib (Fisher, Inc.) inhibitors were added at 1-2 uM concentrations to MLEC plated in 96-well plates using a 1 hour pre-incubation before addition of human active TGF-β1 in […] concentrations with continued presence of the inhibitor for 18 hours overnight in standard conditions as described in Example 2 methods. A neutraceutical, the green tea catechin ECGC (Sigma) was also tested. Luciferase signals were determined after cell lysis and compared as in Example 2.

[1] = tested on: TGF-β1 signaling caused by NSP15 activation of human latent TGF-β1; assay type: cell-based, mink; details: 1 hour pre-incubation; 2 μg/ml of antibody or 1-2 μM small molecule; 0-2.4 nM NSP15 plus 2 nM latent human TGF-β1; MLEC; FIG. 8
human latent TGF-β1 = target: T1, human latent TGF-β1 (Homo sapiens, UniProt P01137); assay type: cell-based; details: peptide incubated 45 minutes at 37° C. with 2 nM human latent TGF-β1, then 18 hours on MLEC; FIG. 5
T1 construct: purchased Acrobio, Inc
T1 sequence (P01137 30-278 limits assumed): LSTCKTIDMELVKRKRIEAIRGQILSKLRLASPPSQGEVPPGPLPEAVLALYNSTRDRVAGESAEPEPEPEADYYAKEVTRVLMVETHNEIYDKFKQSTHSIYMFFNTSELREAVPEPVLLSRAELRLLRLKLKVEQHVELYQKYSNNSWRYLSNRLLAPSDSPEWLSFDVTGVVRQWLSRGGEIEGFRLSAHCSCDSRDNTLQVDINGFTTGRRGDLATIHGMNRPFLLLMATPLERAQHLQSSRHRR

Compound | block of NSP15 mediated effects on TGF-β1 signaling [1] | activation of latent TGF-β1 (luciferase signal, RLU) (human latent TGF-β1) | other results
O=C(O[C@@H]1Cc2c(O)cc(O)cc2O[C@@H]1c1cc(O)c(O)c(O)c1)c1cc(O)c(O)c(O)c1 [ECGC] |  |  | inhibition of active TGF-β1 signaling at higher concentrations (active TGF-β1 signaling; 80 uM, subsequent experiments, not shown): 80%; effectiveness at blocking active TGF-β1 signaling (active TGF-β1 signaling; 1-2 μM concentrations, MLEC, FIG. 7): not effective
Cc1cccc(-c2[nH]c(C(C)(C)C)nc2-c2ccc3c(c2)OCO3)n1 [SB505124] | block NSP15 mediated effects on TGF-β1 signaling |  | 
Cc1cccc(-c2nn3c(c2-c2ccnc4ccc(C(N)=O)cc24)CCC3)n1 [galunisertib] | block NSP15 mediated effects on TGF-β1 signaling |  | 
DKRFKQDGGWSHWSPW [TSP1] |  | not a significant activator of latent TGF-β1 | 
KFILALRKLLFESEGP [SCR] |  | not | 
LLIGLAKRFKESPFEL [NSP15 KRFK-region peptide, 16 amino acid synthetic peptide centered on the SARS-CoV2 NSP15 KRFK region] |  | activates latent TGF-β1 | 
